Measured values taken from patent US20240140938A1, “PREPARATION OF TETRAHYDROINDAZOLE DERIVATIVES AS NOVEL DIACYLGLYCERIDE O-ACYLTRANSFERASE 2 INHIBITORS” (MERCK SHARP & DOHME LLC, priority 2020, published 2024).

Molecular target: human DGAT2 (hDGAT2) (Homo sapiens (Human), UniProt Q96PD7)
Experiment: DGAT2 Enzymatic Activity Assay
Assay type: biochemical
Details: hDGAT2 Sf-9 membrane prep; 13C18-triolein product by LC/MS/MS; 25 μM diolein, 5 μM 13C oleoyl-CoA
Method in brief: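 Enzyme source was membrane fractions from Sf-9 cells infected with untagged hDGAT2 baculovirus. Reactions ran at room temperature, and product 13C18-triolein was quantified by LC/MS/MS against a 13C21-triolein internal standard. % inhibition was normalised to high and low controls, and IC50 derived from it.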

human DGAT2 (hDGAT2), sequence (Q96PD7 whole entry): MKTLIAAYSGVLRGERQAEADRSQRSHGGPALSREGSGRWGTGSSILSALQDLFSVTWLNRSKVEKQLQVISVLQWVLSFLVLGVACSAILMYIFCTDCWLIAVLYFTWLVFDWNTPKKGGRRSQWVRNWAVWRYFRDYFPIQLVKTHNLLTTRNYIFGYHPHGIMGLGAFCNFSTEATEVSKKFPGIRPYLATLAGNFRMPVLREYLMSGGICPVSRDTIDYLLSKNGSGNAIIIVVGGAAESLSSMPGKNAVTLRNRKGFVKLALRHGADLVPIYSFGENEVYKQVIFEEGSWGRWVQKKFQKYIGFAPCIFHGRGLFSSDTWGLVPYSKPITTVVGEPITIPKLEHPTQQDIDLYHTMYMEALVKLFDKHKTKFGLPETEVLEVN

Molecule CC(C)n1nc(-c2cc(OC(F)F)ccc2Cl)c2c1C[C@H](C(=O)NC1(C)CS(=O)(=O)C1)CC2 [Example 84, (R)-3-(2-chloro-5-(difluoromethoxy)phenyl)-1-isopropyl-N-(3-methyl-1,1-dioxidothietan-3-yl)-4,5,6,7-tetrahydro-1H-indazole-6-carboxamide] has an IC50 of 7.92 nM.
For CC(C)n1nc(-c2cc(OC(F)F)ccc2F)c2c1C[C@H](C(=O)N[C@@]1(C)CCS(=O)(=O)C1)CC2 [Example 28, (R)-3-(5-(difluoromethoxy)-2-fluorophenyl)-1-isopropyl-N-((S)-3-methyl-1,1-dioxidotetrahydrothiophen-3-yl)-4,5,6,7-tetrahydro-1H-indazole-6-carboxamide], the IC50 was 30.1 nM.
C[C@]1(NC(=O)[C@@H]2CCc3c(-c4cccc(C5(F)CC5)c4)nn(-c4ccc(F)cc4)c3C2)CCS(=O)(=O)C1 [Example 17, (R)-3-(3-(1-fluorocyclopropyl)phenyl)-1-(4-fluorophenyl)-N-((S)-3-methyl-1,1-dioxidotetrahydrothiophen-3-yl)-4,5,6,7-tetrahydro-1H-indazole-6-carboxamide] was tested, and the IC50 was 70.7 nM.
With [2H]C([2H])([2H])C([2H])(n1nc(-c2cc(OC(F)F)ccc2F)c2c1C[C@H](C(=O)NC1(C#N)CCS(=O)(=O)CC1)CC2)C([2H])([2H])[2H] [Example 51, (R)-N-(4-cyano-1,1-dioxidotetrahydro-2H-thiopyran-4-yl)-3-(5-(difluoromethoxy)-2-fluorophenyl)-1-(propan-2-yl-d7)-4,5,6,7-tetrahydro-1H-indazole-6-carboxamide] the IC50 was 4.3 nM.
CC(C)n1nc(-c2cc(OC(F)F)ccc2F)c2c1C[C@H](C(=O)NC1(C)CS(=O)(=O)C1)CC2 [Example 82, (R)-3-(5-(difluoromethoxy)-2-fluorophenyl)-1-isopropyl-N-(3-methyl-1,1-dioxidothietan-3-yl)-4,5,6,7-tetrahydro-1H-indazole-6-carboxamide] gave an IC50 of 30.8 nM.
For CC1(NC(=O)[C@@H]2CCc3c(-c4cc(OC(F)F)ccc4F)nn(C4CCCC4O)c3C2)CS(=O)(=O)C1 (single isomer, unassigned) [Example 114c], the IC50 was 99.9 nM.
For CC(C)(N)c1cccc(-c2nn(-c3ccc(F)cc3)c3c2CC[C@@H](C(=O)N[C@@]2(C)CCS(=O)(=O)C2)C3)c1 [Example 18, (R)-3-(3-(2-aminopropan-2-yl)phenyl)-1-(4-fluorophenyl)-N-((S)-3-methyl-1,1-dioxidotetrahydrothiophen-3-yl)-4,5,6,7-tetrahydro-1H-indazole-6-carboxamide], the IC50 was over 10000 nM.
In the case of C[C@]1(NC(=O)[C@@H]2Cc3c(c(-c4cccc(OC(F)F)c4)nn3C3CCOCC3)C(F)(F)C2)CCS(=O)(=O)C1 (single isomer, unassigned) [Example 117a], the IC50 is reported as over 10000 nM.
CC1(NC(=O)[C@@H]2CCc3c(-c4cc(OC(F)F)ccc4F)nn(C4CCCC4O)c3C2)CS(=O)(=O)C1 (single isomer, unassigned) [Example 114a] gave an IC50 of 44.5 nM.
CC(C)n1nc(-c2cccc(OC(F)F)c2)c2c1C[C@H](C(=O)N[C@@H](C)CO)CC2 [Example 65, (R)-3-(3-(difluoromethoxy)phenyl)-N-((S)-1-hydroxypropan-2-yl)-1-isopropyl-4,5,6,7-tetrahydro-1H-indazole-6-carboxamide] gave an IC50 of 7260 nM.
Molecule CC(C)n1nc(-c2cc(OC(F)F)ncc2F)c2c1C[C@H](C(=O)NC1(C)CCS(=O)(=O)CC1)CC2 [Example 21, (R)-3-(2-(difluoromethoxy)-5-fluoropyridin-4-yl)-1-isopropyl-N-(4-methyl-1,1-dioxidotetrahydro-2H-thiopyran-4-yl)-4,5,6,7-tetrahydro-1H-indazole-6-carboxamide] has an IC50 of 43.8 nM.
CC(C)n1nc(-c2cccc(S(C)(=O)=O)c2)c2c1C[C@H](C(=O)NC1(C)CS(=O)(=O)C1)CC2 [Example 98, (R)-1-isopropyl-N-(3-methyl-1,1-dioxidothietan-3-yl)-3-(3-(methylsulfonyl)phenyl)-4,5,6,7-tetrahydro-1H-indazole-6-carboxamide] was tested, and the IC50 was over 10000 nM.
Molecule CC(C)n1nc(-c2cccc(OC(F)F)c2)c2c1C[C@H](C(=O)NCc1cnoc1)CC2 [Example 63, (R)-3-(3-(difluoromethoxy)phenyl)-1-isopropyl-N-(isoxazol-4-ylmethyl)-4,5,6,7-tetrahydro-1H-indazole-6-carboxamide] has an IC50 of 4560 nM.
CCOc1cc(-c2nn(C(C)C(C)(C)O)c3c2CC[C@@H](C(=O)N[C@@]2(C)CCS(=O)(=O)C2)C3)c(F)cn1 (single isomer, unassigned) [Example 108b] was tested, and the IC50 was 172 nM.
CC(C)n1nc(-c2cncc(C(=O)NC(C)(C)C)c2)c2c1C[C@H](C(=O)NC1(C)CS(=O)(=O)C1)CC2 [Example 95, (R)-3-(5-(tert-butylcarbamoyl)pyridin-3-yl)-1-isopropyl-N-(3-methyl-1,1-dioxidothietan-3-yl)-4,5,6,7-tetrahydro-1H-indazole-6-carboxamide] gave an IC50 of over 10000 nM.
Molecule CC(C)n1nc(-c2cncc(OC(F)(F)C(F)F)c2)c2c1C[C@H](C(=O)NC1(C)CCS(=O)(=O)CC1)CC2 [Example 106, (R)-1-isopropyl-N-(4-methyl-1,1-dioxidotetrahydro-2H-thiopyran-4-yl)-3-(5-(1,1,2,2-tetrafluoroethoxy)pyridin-3-yl)-4,5,6,7-tetrahydro-1H-indazole-6-carboxamide] has an IC50 of 204 nM.
Cc1ncc(OC(F)F)cc1-c1nn(C(C)C)c2c1CC[C@@H](C(=O)NC1(C)CS(=O)(=O)C1)C2 [Example 86, (R)-3-(5-(difluoromethoxy)-2-methylpyridin-3-yl)-1-isopropyl-N-(3-methyl-1,1-dioxidothietan-3-yl)-4,5,6,7-tetrahydro-1H-indazole-6-carboxamide] was tested, and the IC50 was 170 nM.
With CCOc1cc(-c2nn(C(C)C)c3c2CC[C@@H](C(=O)NC2(C)CS(=O)(=O)C2)C3)c(F)cn1 [Example 34, (R)-3-(2-ethoxy-5-fluoropyridin-4-yl)-1-isopropyl-N-(3-methyl-1,1-dioxidothietan-3-yl)-4,5,6,7-tetrahydro-1H-indazole-6-carboxamide] the IC50 was 117 nM.
With CC(C)N1CCC(NC(=O)[C@@H]2CCc3c(-c4cc(OC(F)F)ccc4F)nn(C(C)C)c3C2)C1=O (stereo partly drawn) [Example 64, (6R)-3-(5-(difluoromethoxy)-2-fluorophenyl)-1-isopropyl-N-(1-isopropyl-2-oxopyrrolidin-3-yl)-4,5,6,7-tetrahydro-1H-indazole-6-carboxamide] the IC50 was 622 nM.
For CC(C)n1nc(-c2cc(C3CC3)ccc2F)c2c1C[C@H](C(=O)NC1(C)CS(=O)(=O)C1)OC2 [Example 128, (R)-3-(5-cyclopropyl-2-fluorophenyl)-1-isopropyl-N-(3-methyl-1,1-dioxidothietan-3-yl)-1,4,6,7-tetrahydropyrano[4,3-c]pyrazole-6-carboxamide], the IC50 was 320 nM.
Work on CC(C)n1nc(-c2cccc(OC(F)F)c2)c2c1C[C@H](C(=O)N[C@@]1(C)CCS(=O)(=O)C1)CC2 [Example 25, (R)-3-(3-(difluoromethoxy)phenyl)-1-isopropyl-N-((S)-3-methyl-1,1-dioxidotetrahydrothiophen-3-yl)-4,5,6,7-tetrahydro-1H-indazole-6-carboxamide] yielded an IC50 of 59.8 nM.
CC(n1nc(-c2cc(OCC(F)(F)F)ncc2F)c2c1C[C@H](C(=O)N[C@@]1(C)CCS(=O)(=O)C1)CC2)C(C)(C)O (single isomer, unassigned) [Example 112b] was tested, and the IC50 was 31.6 nM.
